Reference: PMC7479175, “Selection of Potent Inhibitors of Soluble Epoxide Hydrolase for Usage in Veterinary Medicine” (Frontiers in Veterinary Science, 2020)

Experiments:
sEH = conditions: non-selective pan-esterase inhibitor used at 100 μM; ref [18]; cited from earlier work
Cat sEH [1] = biological target: T1, Cat sEH (Felis catus, UniProt A0ABI7ZL20); test: Secondary screen (kinetic mode), PHOME substrate; format: biochemical; conditions: read-out: Cat sEH Inhibition (%) S.
Horse sEH [2] = biological target: T2, Horse sEH (Equus caballus, UniProt F7C407); test: Secondary screen (kinetic mode), PHOME substrate; format: biochemical; conditions: [I] = 100 nM, secondary kinetic mode screening
Cat sEH [3] = biological target: T1, Cat sEH; test: Primary screen (end point) of the sEH inhibitor library, PHOME substrate; format: biochemical; conditions: read-out: Cat sEH Inhibition (%) P.
Experimental: (§1) Primary screening of the library was performed with an inhibitor concentration of 100 nM using PHOME as substrate ([22]). […] The plates were then mixed and incubated at 30°C for 5 min. Across each plate, 30 μL of the working substrate solution (270 μL of 5 mM PHOME solution in DMSO diluted with 3,680 μL of buffer) were added quickly to yield [S]final: 50 μM. Each plate was further incubated at room temperature (horse sEH: 60 min; cat sEH: 45 min; dog sEH: 30 min).

Dog sEH [4] = biological target: T3, Dog sEH (Canis lupus familiaris, UniProt A0A8I3NJL8); test: as above; format: biochemical; conditions: [I] = 100 nM, primary end-point screening
T3 sequence (A0A8I3NJL8 1-556): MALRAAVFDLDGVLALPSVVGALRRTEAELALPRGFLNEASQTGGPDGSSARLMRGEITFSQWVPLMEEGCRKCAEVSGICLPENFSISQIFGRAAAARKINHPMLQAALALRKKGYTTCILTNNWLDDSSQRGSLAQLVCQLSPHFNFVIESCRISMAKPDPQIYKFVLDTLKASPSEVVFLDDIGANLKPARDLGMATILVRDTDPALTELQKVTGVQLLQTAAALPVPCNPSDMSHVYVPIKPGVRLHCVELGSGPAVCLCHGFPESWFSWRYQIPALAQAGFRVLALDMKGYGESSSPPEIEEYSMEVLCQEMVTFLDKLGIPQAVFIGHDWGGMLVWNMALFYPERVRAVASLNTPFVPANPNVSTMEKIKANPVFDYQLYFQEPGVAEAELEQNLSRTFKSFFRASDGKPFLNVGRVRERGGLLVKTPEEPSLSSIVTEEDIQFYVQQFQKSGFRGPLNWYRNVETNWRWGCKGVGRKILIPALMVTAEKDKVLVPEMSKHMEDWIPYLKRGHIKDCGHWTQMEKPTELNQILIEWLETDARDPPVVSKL
Experimental: as §1

Horse sEH [5] = biological target: T2, Horse sEH; test: as above; format: biochemical; conditions: [I] = 100 nM, primary end-point screening
Experimental: as §1

Dog sEH [6] = biological target: T3, Dog sEH; test: Secondary screen (kinetic mode), PHOME substrate; format: biochemical; conditions: [I] = 100 nM, secondary kinetic mode screening
Microsomal stability [7] = format: in vitro ADME, cat
Experimental: (§2) The stability of the sEH inhibitors was determined using liver microsomes as described ([24]). […] After 30 min at 37°C, the reaction was stopped by the addition of one volume of methanol containing CUDA (200 nM) as surrogate. The amount of remaining inhibitor was determined by LC/MS/MS. The stability is reported as a percentage of compound remaining after 30 min in these conditions.
(§3) Mass spectrometry analyses were performed using a Waters Quattro Premier triple quadrupole tandem mass spectrometer (Micromass, Manchester, UK) interfaced to an electrospray ionization (ESI) source. The MS was coupled with a Waters Acquity UPLC (Waters, Milford, MA, USA). A Varian Pursuit5 C18 RP HPLC column (150 mm × 2.1 mm, particle size 5 μm) was used to separate the analytes. […] The source and the desolvation temperatures were set at 120 and 300°C, respectively. […] Dwell time was set to 0.1 s.

Microsomal stability [8] = format: in vitro ADME, dog; conditions: 1 μM inhibitor, microsomes 1 mg/mL, 37°C, 30 min, compound remaining, average ± SD (n = 3)
Experimental: as §2, §3

Microsomal stability [9] = format: in vitro ADME, horse; conditions: 1 μM inhibitor, microsomes 1 mg/mL, 37°C, 30 min, compound remaining, average ± SD (n = 3)
Experimental: as §2, §3

[10] = biological target: sEH activity from liver cytosol of Cow (Bos taurus, UniProt Q17QK4); test: sEH inhibition potency (IC50), radioactive assay with [3H]t-DPPO, liver cytosol; format: biochemical; conditions: [3H]t-DPPO ([S]final = 5 μM) as substrate
From the text: (§4) Fresh liver tissues samples (5–30 g) were collected promptly after death from healthy adult cat, dog and horse euthanized for reasons unrelated to this study, and whose bodies were given to science by the owners in line with federal regulations and protocol approved by the Institutional Animal Care and Use Committee at University of California Davis. Similarly, tissues from the other animals tested herein were collected from healthy animals immediately after being slaughter at the university abattoir. Because no animals were directly used or killed for this study, sample collections were exempted from approval by the Institutional Animal Care and Use Committee of the University of California Davis and Michigan State University. […] The tissues were flash-frozen in liquid nitrogen following removal, and then kept at −80°C until used. After thawing on ice, the samples were homogenized in chilled sodium phosphate buffer (20 mM pH 7.4) containing 5 mM EDTA, 1 mM DTT and 1 mM PMSF (tissue weight:buffer volume ratio 1:4). These homogenates were centrifuged at 100,000 g for 60 min at 4°C. The supernatant (the cytosolic fraction) was separated from the pellet, aliquoted and flash frozen in liquid nitrogen, then kept frozen at −80°C until usage.
(§5) The IC50 values reported herein were determined using either a fluorescent based assay (CMNPC as substrate) for purified enzyme preparations or a radioactive based assay ([^3H]t-DPPO as substrate) for crude enzyme preparations ([20]). The fluorescent assay was used with the purified proteins. […] The substrate (CMNPC) was then added ([S]final = 5 μM). […] The radioactive […] assay was used with the liver crude extracts. Extracts were incubated with inhibitors ([I]final = 1–1,000 nM) at 30° C for 5 min in sodium phosphate buffer (pH 7.4) containing 0.1 mg/mL of BSA and 1% of DMSO, prior to substrate introduction ([^3H]t-DPPO [S]final: 50 μM; ~12,000 dpm/assay). The enzymes were incubated at 30°C for 10 min, and the reaction was quenched by the addition of 60 μL methanol and 200 μL isooctane, which extracts the remaining epoxide from the aqueous phase. […] Assays were performed in triplicate.

[11] = biological target: T4, sEH activity from liver cytosol of Hamster (Mesocricetus auratus, UniProt A0A1U7QV09); test: as above; format: biochemical; conditions: [3H]t-DPPO ([S]final = 5 μM) as substrate
T4 sequence (A0A1U7QV09 1-554): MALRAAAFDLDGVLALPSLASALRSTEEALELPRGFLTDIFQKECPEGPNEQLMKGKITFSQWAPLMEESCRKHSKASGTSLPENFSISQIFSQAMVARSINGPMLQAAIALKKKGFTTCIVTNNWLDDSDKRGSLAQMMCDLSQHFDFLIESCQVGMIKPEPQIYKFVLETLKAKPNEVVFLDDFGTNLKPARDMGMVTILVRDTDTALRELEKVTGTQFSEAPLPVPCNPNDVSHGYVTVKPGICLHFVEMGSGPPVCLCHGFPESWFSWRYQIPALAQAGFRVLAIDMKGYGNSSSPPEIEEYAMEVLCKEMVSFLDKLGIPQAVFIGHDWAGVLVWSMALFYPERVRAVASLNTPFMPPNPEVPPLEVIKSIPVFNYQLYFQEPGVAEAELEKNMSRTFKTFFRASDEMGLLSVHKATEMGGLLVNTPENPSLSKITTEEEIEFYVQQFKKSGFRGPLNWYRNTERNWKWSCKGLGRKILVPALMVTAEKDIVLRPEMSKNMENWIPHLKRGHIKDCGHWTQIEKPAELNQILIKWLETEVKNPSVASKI
From the text: as §4, §5

T2 sequence (F7C407 entry or part of it): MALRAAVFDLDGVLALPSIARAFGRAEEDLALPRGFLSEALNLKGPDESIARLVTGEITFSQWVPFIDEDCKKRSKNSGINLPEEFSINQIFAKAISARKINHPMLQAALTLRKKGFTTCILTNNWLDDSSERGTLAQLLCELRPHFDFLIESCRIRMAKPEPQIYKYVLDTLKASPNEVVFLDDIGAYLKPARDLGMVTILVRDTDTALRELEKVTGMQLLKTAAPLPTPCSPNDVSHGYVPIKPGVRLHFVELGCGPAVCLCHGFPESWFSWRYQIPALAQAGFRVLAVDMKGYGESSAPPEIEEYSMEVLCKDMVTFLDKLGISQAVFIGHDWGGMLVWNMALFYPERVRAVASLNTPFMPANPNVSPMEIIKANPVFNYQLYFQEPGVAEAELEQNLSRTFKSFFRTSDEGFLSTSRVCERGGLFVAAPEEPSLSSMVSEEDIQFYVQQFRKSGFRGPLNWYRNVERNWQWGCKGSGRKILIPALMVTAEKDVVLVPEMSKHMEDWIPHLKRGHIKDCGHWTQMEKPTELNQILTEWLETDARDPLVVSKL
T1 sequence (A0ABI7ZL20 entry or part of it): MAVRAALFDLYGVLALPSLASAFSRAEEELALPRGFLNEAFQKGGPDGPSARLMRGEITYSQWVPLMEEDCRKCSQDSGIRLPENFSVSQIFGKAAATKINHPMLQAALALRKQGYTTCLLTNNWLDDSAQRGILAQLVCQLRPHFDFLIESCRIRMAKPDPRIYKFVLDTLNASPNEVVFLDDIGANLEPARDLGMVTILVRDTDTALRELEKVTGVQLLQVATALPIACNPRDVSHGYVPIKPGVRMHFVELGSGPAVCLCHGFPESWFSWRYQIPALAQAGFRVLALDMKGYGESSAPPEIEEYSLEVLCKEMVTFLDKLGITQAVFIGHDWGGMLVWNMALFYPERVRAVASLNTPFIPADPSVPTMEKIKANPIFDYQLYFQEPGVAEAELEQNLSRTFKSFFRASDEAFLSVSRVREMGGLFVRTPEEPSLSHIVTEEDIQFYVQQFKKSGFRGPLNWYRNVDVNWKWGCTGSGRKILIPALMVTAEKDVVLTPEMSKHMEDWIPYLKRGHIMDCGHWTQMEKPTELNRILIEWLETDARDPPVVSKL
sEH activity from liver cytosol of Cow, sequence (Q17QK4 entry or part of it): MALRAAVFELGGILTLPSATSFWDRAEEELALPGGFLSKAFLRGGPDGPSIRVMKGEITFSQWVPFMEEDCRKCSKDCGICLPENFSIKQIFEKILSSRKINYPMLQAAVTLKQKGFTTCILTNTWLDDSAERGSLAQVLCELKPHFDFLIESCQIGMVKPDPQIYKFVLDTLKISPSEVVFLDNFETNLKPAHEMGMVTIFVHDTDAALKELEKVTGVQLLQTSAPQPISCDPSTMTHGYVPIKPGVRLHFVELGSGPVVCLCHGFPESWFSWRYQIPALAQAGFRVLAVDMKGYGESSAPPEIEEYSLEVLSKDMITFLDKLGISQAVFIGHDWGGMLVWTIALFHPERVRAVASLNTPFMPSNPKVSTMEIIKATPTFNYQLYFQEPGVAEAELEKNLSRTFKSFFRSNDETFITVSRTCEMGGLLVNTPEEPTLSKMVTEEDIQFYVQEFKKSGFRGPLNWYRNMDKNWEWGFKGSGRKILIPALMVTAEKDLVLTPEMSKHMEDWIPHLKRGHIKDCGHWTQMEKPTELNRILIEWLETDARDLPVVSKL

CCOP(=O)(OCC)Oc1ccc([N+](=O)[O-])cc1 [Paraoxon]
inhibition of sEH (sEH): does not inhibit sEH

CC1CCCCC1NC(=O)Nc1ccccc1 (centres unmarked) [Siduron]
inhibition at 0.1 µM (Cat sEH [1]): 77% | Horse sEH Inhibition (%) S. (Horse sEH [2]): 81% | inhibition at 0.1 µM (Cat sEH [3]): 93% | Dog sEH Inhibition (%) P. (Dog sEH [4]): < 90% | Horse sEH Inhibition (%) P. (Horse sEH [5]): 92% | Dog sEH Inhibition (%) S. (Dog sEH [6]): 43%

O=C(O)CCCCCCCCCCCNC(=O)NC12CC3CC(CC(C3)C1)C2 [compound 700]
Stability (% without microsomes) Cat liver microsomes NADPH + (Microsomal stability [7]; 1 μM inhibitor, microsomes 1 mg/mL, with NADPH, 37°C, 30 min, compound remaining, average ± SD (n = 3)): 28 ± 3% | Stability (% without microsomes) Cat liver microsomes NADPH – (Microsomal stability [7]; 1 μM inhibitor, microsomes 1 mg/mL, without NADPH, 37°C, 30 min, compound remaining, average ± SD (n = 3)): 105 ± 11% | metabolism in cat liver microsomes (in words) (Microsomal stability [7]; in the presence of NADPH): quickly transformed | inhibition at 0.1 µM (Horse sEH [2]; read-out: Horse sEH Inhibition (%) S.): 85% | inhibition at 0.1 µM (Dog sEH [4]; read-out: Dog sEH Inhibition (%) P.): 92% | inhibition at 0.1 µM (Horse sEH [5]; read-out: Horse sEH Inhibition (%) P.): 94% | Stability (% without microsomes) Dog liver microsomes NADPH + (Microsomal stability [8]; with NADPH): 66 ± 9% | Stability (% without microsomes) Dog liver microsomes NADPH – (Microsomal stability [8]; without NADPH): 94 ± 6% | Stability (% without microsomes) Horse liver microsomes NADPH + (Microsomal stability [9]; with NADPH): 96 ± 9% | Stability (% without microsomes) Horse liver microsomes NADPH – (Microsomal stability [9]; without NADPH): 114 ± 15% | IC50 [10]: 6 nM | IC50 [11]: 5 nM | inhibition at 0.1 µM (Dog sEH [6]; read-out: Dog sEH Inhibition (%) S.): 80%
